The results in this text go back to PubChem BioAssay AID1259333 (Broad Institute, 2017).

The structures appear in SMILES notation. Active and inactive are the calls of the source. How the calls were made is not given here; tested in parental BL2 cells.

A short description of one test: cell cytotoxicity, dose response, cytotoxicity control, CellTiter-Glo (AID 1259333).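 Further: 0% = vehicle neutral controls and -100% = reference inhibitor positive controls.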 As to conditions: cytotoxicity, CellTiter-Glo ATP luminescence; at 3.5 µM (top of the series). On the technique in general: In ATP-based viability assays light output follows the ATP content of the culture.
Turning to `N#C[C@H]1[C@H](c2ccc(C#CC3CCCCC3)cc2)[C@@H](CO)N1C(=O)Nc1ccc(F)cc1`, the activity change, negative = cytotoxicity is 25.8% (inactive). The same measure, in the same setting: under `C[C@H](CO)N1C[C@H](C)[C@H](CN(C)CC2CCCCC2)Oc2ccc(NC(=O)Nc3ccc(C(F)(F)F)cc3)cc2C1=O` stands 32.8% (inactive); under `COc1cccc(S(=O)(=O)N(C)C[C@H]2OCc3ccccc3-c3c(n(C)c4ccccc34)C(=O)N([C@@H](C)CO)C[C@H]2C)c1`, 15.7% (inactive); under `C[C@@H]1CCCCO[C@@H](CN(C)CC2CCCCC2)[C@@H](C)CN([C@@H](C)CO)C(=O)c2cc(NC(=O)Nc3ccc(C(F)(F)F)cc3)ccc2O1`, 15% (inactive). On the same count and under the same terms, the value for `CC(C)(C)c1cc(/C=C(\C#N)C(N)=S)cc(C(C)(C)C)c1O` was 26.8% (inactive). Same read-out and setting: under `Cc1[nH]c2ccccc2c1C(c1ccccn1)N1CCC(C(N)=O)CC1` (stereo not drawn) stands 29.7% (inactive).

Staying with this test, now noted: cytotoxicity, CellTiter-Glo ATP luminescence; at 10 µM (top of the series).
On to `COc1ccc(S(=O)(=O)Nc2ccc3c(c2)C(=O)N([C@@H](C)CO)C[C@@H](C)[C@@H](CN(C)Cc2ccc(C(F)(F)F)cc2)OCCCC[C@@H](C)O3)cc1`, for which the activity change, negative = cytotoxicity was -20.6% (inactive).

As for `CC(=O)NC12CC3CC(C1)CC(C(=O)OCC(=O)c1ccc4c(c1)OCCO4)(C3)C2`, the activity change, negative = cytotoxicity is 20.6% (inactive). Same read-out and setting: the value for `COc1cccc(S(=O)(=O)N(C)C[C@H]2OCc3ccccc3-c3c(n(C)c4ccccc34)C(=O)N([C@H](C)CO)C[C@@H]2C)c1` was 20.3% (inactive); that for `Oc1ccc2c(c1)OCC1(O)Cc3cc(O)c(O)cc3C21` (stereo not drawn) was 8.98% (inactive); that for `N#C[C@@H]1[C@@H](c2ccc(C#CC3CCCCC3)cc2)[C@H](CO)N1C(=O)Nc1ccc(F)cc1` was 28.9% (inactive). The same measure, in the same setting: under `C=C1C(=O)OC2CC1C(O)CC(C)=CCCC(C)=CC(O)CC2C` (stereo not drawn) stands 35.5% (inactive); under `CC[C@H]1CN2CCc3cc(OC)c(OC)cc3C2C[C@@H]1CC1NCCc2cc(OC)c(OC)cc21` (stereo partly drawn), -31.6% (inactive); under `CCOc1ccc(OCc2cccc(C(=O)N3CCOCC3)c2)cc1`, 42% (inactive). Still for that read-out and setting: the value for `N#Cc1cccc(-c2ccc(C3[C@@H]4CN(C(=O)Nc5ccc(C(F)(F)F)cc5)C[C@H]3N4)cc2)c1` (stereo partly drawn) was -11.5% (inactive). Regarding `COc1ccc(CN2CC3(CN(S(=O)(=O)c4ccc(C)cc4)C3)c3c([nH]c4cc(OC)ccc34)[C@H]2CO)cc1`, the activity change, negative = cytotoxicity was 20.2% (inactive).

On to `C[C@@H]1CN([C@@H](C)CO)C(=O)c2cc(C#CCc3ccccc3)cnc2O[C@@H]1CN(C)C(=O)C1CCOCC1`, for which the activity change, negative = cytotoxicity is 5.87% (inactive). Still for that read-out and setting: the value for `O=C1C(Br)=C(c2ccccc2)C(c2ccccc2)=C1c1ccccc1` was -18.2% (inactive); that for `c1cncc(C2=NCCC2)c1` was 36.6% (inactive); that for `CC1(C)C(=O)C=C[C@@]2(C)C1C(=O)C(=O)[C@]1(C)C2CC[C@@]2(C)[C@H](c3ccoc3)C[C@H]3O[C@]321` (stereo partly drawn) was 161% (inactive).

On to `O=C(NC(=S)/C(=C1\CCCCCN1)[N+](=O)[O-])c1ccccc1`, for which the activity change, negative = cytotoxicity was 16.4% (inactive).

In the case of `COc1ccc(S(=O)(=O)N(C)C[C@H]2Oc3ccc(NC(=O)Nc4ccc(C(F)(F)F)cc4)cc3C(=O)N([C@@H](C)CO)C[C@H]2C)cc1`, the activity change, negative = cytotoxicity is 24.4% (inactive). Same read-out and setting: under `O=C1C(=Cc2ccccc2[N+](=O)[O-])Cc2ccccc21` stands 161% (inactive); under `CC(=O)c1cc(-c2ccccc2)n(CC(=O)NCc2cccs2)c1C`, 2.3% (inactive); under `COc1ccc(S(=O)(=O)N(C)C[C@@H]2Oc3ccc(NC(=O)Nc4ccc(C(F)(F)F)cc4)cc3C(=O)N([C@@H](C)CO)C[C@@H]2C)cc1`, 84.5% (inactive). Same read-out and setting: the value for `COC(=O)c1ccc2c(=O)[nH]c(COC(=O)c3c(-c4ccccc4)noc3C)nc2c1` was 11% (inactive); that for `C[C@@H]1CN([C@H](C)CO)C(=O)c2c(c3ccccc3n2C)-c2ccccc2CO[C@H]1CN(C)C(=O)Nc1ccccc1C(F)(F)F` was -16.3% (inactive). On the same count and under the same terms, under `CCCn1c(NC(=O)c2cccc(S(=O)(=O)N3CCCC3)c2)nc2ccccc21` stands 12.5% (inactive); under `O=C1C=CC(=O)C2=C1C1c3ccccc3C2c2ccccc21`, 90.3% (inactive). Turning to `CC(=O)OCC(=O)C1(O)CCC2C3CCC4=CC(=O)CCC4(C)C3(Cl)C(O)CC21C` (stereo not drawn), the activity change, negative = cytotoxicity was 25.5% (inactive).

`COc1ccc2cc(-c3cc(C(=O)O)c4ccccc4n3)ccc2c1`: the activity change, negative = cytotoxicity was 6.64% (inactive). Still for that read-out and setting: the value for `Cn1c(CO)nc2cc(N)ccc21` was 34.6% (inactive); that for `CCN(CC(=O)Nc1ccc(NC(C)=O)cc1)C(=O)C1CCCN(C(=O)c2ccc(Cl)cc2)C1` (stereo not drawn) was 33.9% (inactive); that for `C[C@H]1CCCC(=O)CCC/C=C/c2cc(O)cc(O)c2C(=O)O1` was 29.3% (inactive). On the same count and under the same terms, the value for `C[C@H](CO)N1C[C@H](C)[C@@H](CN(C)Cc2ccc(Cl)c(Cl)c2)OCCCC[C@H](C)Oc2ccc(NS(=O)(=O)c3cccs3)cc2C1=O` was 9.11% (inactive); that for `O=C(CN1C(=O)c2ccccc2S1(=O)=O)Nc1ncc(Cl)cc1Cl` was 30.7% (inactive); that for `CCc1cnc(N2[C@H](C#N)[C@@H](c3ccc(C#CC(C)C)cc3)[C@H]2CO)s1` was 10.7% (inactive). Same read-out and setting: under `Cc1noc(C)c1S(=O)(=O)Nc1ccc2c(c1)C(=O)N([C@@H](C)CO)C[C@@H](C)[C@@H](CN(C)C(=O)Nc1cccc3ccccc13)OCCCC[C@H](C)O2` stands 25.9% (inactive). Turning to `CC(=O)Nc1ccc(S(=O)(=O)c2ccc(N)cc2)cc1`, the activity change, negative = cytotoxicity was 13.9% (inactive). Still for that read-out and setting: the value for `Cc1nc(-c2ccc(OCC(C)C)c(C#N)c2)sc1C(=O)O` was 23.3% (inactive); that for `C[C@H]1CN([C@@H](C)CO)C(=O)c2c(c3ccccc3n2C)-c2ccccc2CO[C@H]1CN(C)C(=O)Nc1ccccc1C(F)(F)F` was -4.57% (inactive). With `N#Cc1ccc(-c2ccc3c(c2)[C@H]2[C@H](CCN2C(=O)C2CC2)[C@@H](CO)N3)cc1`, the activity change, negative = cytotoxicity is 66.9% (inactive).

With `Cc1ccccc1S(=O)(=O)N1C[C@@H]2N[C@H](C1)C2c1ccc(-c2cccc(C#N)c2)cc1` (stereo partly drawn), the activity change, negative = cytotoxicity was 54.5% (inactive).
